# Reference: PubChem BioAssay AID2060892 (Molecular Pharmacology Branch, DTP, NCI, 2025)
# System: HOP-62 complex spheroids with HUVEC/MSC, viability
# Experiment: Anticancer human tumor HOP-62 cell line growth inhibition [RAS];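 also: spheroids exposed to agents for seven days before readout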;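 as to viability, T/C: 100% = DMSO vehicle control viability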
# Details: for viability, T/C: stronger effect = lower value
# Outline: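 Agents were tested in combination matrices in half-log decrements from a top concentration at or near clinical Cmax (10 microM if undetermined). Targets were multi-cell spheroids of tumour lines plus HUVEC and MSC stromal cells.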
# [1] = curve of first compound, second compound 0.00316 µM
# [2] = curve of first compound, second compound 0.01 µM
# [3] = curve of first compound, second compound 0.0316 µM
# [4] = curve of first compound, second compound 0.1 µM
# [5] = curve of first compound, second compound 0.316 µM
# [6] = curve of first compound, second compound 1 µM
# [7] = second compound 0.00316 µM, first compound 0.0316 µM
# [8] = second compound 0.00316 µM, first compound 0.1 µM
# [9] = second compound 0.01 µM, first compound 0.0316 µM
# [10] = second compound 0.01 µM, first compound 0.1 µM
# [11] = second compound 0.0316 µM, first compound 0.00316 µM
# [12] = second compound 0.0316 µM, first compound 0.01 µM
# [13] = second compound 0.0316 µM, first compound 0.0316 µM
# [14] = second compound 0.0316 µM, first compound 0.1 µM
# [15] = second compound 0.1 µM, first compound 0.00316 µM
# [16] = second compound 0.1 µM, first compound 0.01 µM
# [17] = second compound 0.1 µM, first compound 0.0316 µM
# [18] = second compound 0.1 µM, first compound 0.1 µM
# [19] = second compound 0.316 µM, first compound 0.00316 µM
# [20] = second compound 0.316 µM, first compound 0.01 µM
# [21] = second compound 0.316 µM, first compound 0.0316 µM
# [22] = second compound 0.316 µM, first compound 0.1 µM
# [23] = second compound 1 µM, first compound 0.00316 µM
# [24] = second compound 1 µM, first compound 0.01 µM
# [25] = second compound 1 µM, first compound 0.0316 µM
# [26] = second compound 1 µM, first compound 0.1 µM
# [27] = second compound 0.0316 µM, first compound 0.316 µM
# [28] = second compound 0.0316 µM, first compound 1 µM
# [29] = second compound 0.1 µM, first compound 0.316 µM
# [30] = second compound 0.1 µM, first compound 1 µM
# [31] = second compound 0.316 µM, first compound 0.316 µM
# [32] = second compound 0.316 µM, first compound 1 µM
# [33] = second compound 1 µM, first compound 0.316 µM
# [34] = second compound 1 µM, first compound 1 µM
compound,measurement,setting,value
CC(C)n1nc(-c2ccc3oc(N)nc3c2)c2c(N)ncnc21 + C=CC(=O)N1CCN(c2nc(OCC3CCCN3C)nc3c(F)c(-c4nc(N)cc(C)c4C(F)(F)F)c(Cl)cc23)C(C)C1,IC50,[1],3.91 nM
same,IC50,[2],3.62 nM
same,IC50,[3],1.35 nM
same,IC50,[4],1.29 nM
same,IC50,[5],1.3 nM
same,IC50,[6],1.54 nM
same,"viability, T/C","second compound 0.00316 µM, first compound 0.000316 µM",65.2%
same,"viability, T/C","second compound 0.00316 µM, first compound 0.001 µM",62.2%
same,"viability, T/C","second compound 0.00316 µM, first compound 0.00316 µM",51.7%
same,"viability, T/C","second compound 0.00316 µM, first compound 0.01 µM",39.5%
same,"viability, T/C",[7],26.7%
same,"viability, T/C",[8],17.2%
same,"viability, T/C","second compound 0.01 µM, first compound 0.000316 µM",63%
same,"viability, T/C","second compound 0.01 µM, first compound 0.001 µM",62.7%
same,"viability, T/C","second compound 0.01 µM, first compound 0.00316 µM",52.6%
same,"viability, T/C","second compound 0.01 µM, first compound 0.01 µM",33%
same,"viability, T/C",[9],27%
same,"viability, T/C",[10],17.2%
same,"viability, T/C","second compound 0.0316 µM, first compound 0.000316 µM",61.4%
same,"viability, T/C","second compound 0.0316 µM, first compound 0.001 µM",51.9%
same,"viability, T/C",[11],43%
same,"viability, T/C",[12],34.4%
same,"viability, T/C",[13],23.9%
same,"viability, T/C",[14],14%
same,"viability, T/C","second compound 0.1 µM, first compound 0.000316 µM",59.5%
same,"viability, T/C","second compound 0.1 µM, first compound 0.001 µM",53.2%
same,"viability, T/C",[15],40.6%
same,"viability, T/C",[16],27%
same,"viability, T/C",[17],20.8%
same,"viability, T/C",[18],14.1%
same,"viability, T/C","second compound 0.316 µM, first compound 0.000316 µM",61.1%
same,"viability, T/C","second compound 0.316 µM, first compound 0.001 µM",49.6%
same,"viability, T/C",[19],45.8%
same,"viability, T/C",[20],25.9%
same,"viability, T/C",[21],22.1%
same,"viability, T/C",[22],12.9%
same,"viability, T/C","second compound 1 µM, first compound 0.000316 µM",64.9%
same,"viability, T/C","second compound 1 µM, first compound 0.001 µM",50.1%
same,"viability, T/C",[23],47.7%
same,"viability, T/C",[24],30.2%
same,"viability, T/C",[25],20.9%
same,"viability, T/C",[26],13.2%
C=CC(=O)Nc1cc(Nc2nccc(-c3cn(C)c4ccccc34)n2)c(OC)cc1N(C)CCN(C)C + C#Cc1c(F)ccc2cc(O)cc(-c3ncc4c(N5CC6CCC(C5)N6)nc(OCC56CCCN5CC(F)C6)nc4c3F)c12,IC50,[3],> 1000 nM
same,IC50,[4],> 1000 nM
same,IC50,[5],> 1000 nM
same,IC50,[6],> 1000 nM
same,IC50,"curve of first compound, second compound 3.16 µM",535 nM
same,IC50,"curve of first compound, second compound 10 µM",< 3.16 nM
same,"viability, T/C",[11],109%
same,"viability, T/C",[12],105%
same,"viability, T/C",[13],106%
same,"viability, T/C",[14],109%
same,"viability, T/C",[27],108%
same,"viability, T/C",[28],93%
same,"viability, T/C",[15],108%
same,"viability, T/C",[16],114%
same,"viability, T/C",[17],106%
same,"viability, T/C",[18],100%
same,"viability, T/C",[29],101%
same,"viability, T/C",[30],90.4%
same,"viability, T/C",[19],109%
same,"viability, T/C",[20],102%
same,"viability, T/C",[21],100%
same,"viability, T/C",[22],112%
same,"viability, T/C",[31],98%
same,"viability, T/C",[32],83.6%
same,"viability, T/C",[23],104%
same,"viability, T/C",[24],105%
same,"viability, T/C",[25],98.5%
same,"viability, T/C",[26],93.2%
same,"viability, T/C",[33],86.9%
same,"viability, T/C",[34],75.1%
same,"viability, T/C","second compound 3.16 µM, first compound 0.00316 µM",74.8%
same,"viability, T/C","second compound 3.16 µM, first compound 0.01 µM",74.3%
same,"viability, T/C","second compound 3.16 µM, first compound 0.0316 µM",81%
same,"viability, T/C","second compound 3.16 µM, first compound 0.1 µM",81.8%
same,"viability, T/C","second compound 3.16 µM, first compound 0.316 µM",59.2%
same,"viability, T/C","second compound 3.16 µM, first compound 1 µM",38.9%
same,"viability, T/C","second compound 10 µM, first compound 0.00316 µM",47.2%
same,"viability, T/C","second compound 10 µM, first compound 0.01 µM",45.9%
same,"viability, T/C","second compound 10 µM, first compound 0.0316 µM",53%
same,"viability, T/C","second compound 10 µM, first compound 0.1 µM",40.4%
same,"viability, T/C","second compound 10 µM, first compound 0.316 µM",35.4%
same,"viability, T/C","second compound 10 µM, first compound 1 µM",29.5%
CC(C)NCC(C(=O)N1CCN(c2ncnc3c2C(C)CC3O)CC1)c1ccc(Cl)cc1 (stereo unspecified),"viability, T/C",compound 0.0316 µM,105% [middle of 4 runs]
same,"viability, T/C",compound 0.1 µM,105% [middle of 4 runs]
same,"viability, T/C",compound 0.316 µM,98.4% [middle of 4 runs]
NC1c2ccccc2OC12CCN(c1cnc3c(N4CCCc5ncccc54)n[nH]c3n1)CC2 (stereo unspecified) + C=CC(=O)N1CCN(c2nc(OCC3CCCN3C)nc3c(F)c(-c4nc(N)cc(C)c4C(F)(F)F)c(Cl)cc23)C(C)C1,IC50,[1],< 31.6 nM
same,IC50,[2],< 31.6 nM
same,IC50,[3],< 31.6 nM
same,IC50,[4],< 31.6 nM
same,IC50,[5],< 31.6 nM
same,IC50,[6],< 31.6 nM
same,"viability, T/C",[7],45.5%
same,"viability, T/C",[8],30.2%
same,"viability, T/C","second compound 0.00316 µM, first compound 0.316 µM",15%
same,"viability, T/C","second compound 0.00316 µM, first compound 1 µM",13.9%
same,"viability, T/C","second compound 0.00316 µM, first compound 3.16 µM",9.04%
same,"viability, T/C","second compound 0.00316 µM, first compound 10 µM",8.74%
same,"viability, T/C",[9],34.9%
same,"viability, T/C",[10],22.6%
same,"viability, T/C","second compound 0.01 µM, first compound 0.316 µM",11.9%
same,"viability, T/C","second compound 0.01 µM, first compound 1 µM",11.9%
same,"viability, T/C","second compound 0.01 µM, first compound 3.16 µM",9.09%
same,"viability, T/C","second compound 0.01 µM, first compound 10 µM",10.8%
same,"viability, T/C",[13],30.6%
same,"viability, T/C",[14],18.5%
same,"viability, T/C",[27],12.2%
same,"viability, T/C",[28],10.9%
same,"viability, T/C","second compound 0.0316 µM, first compound 3.16 µM",10.3%
same,"viability, T/C","second compound 0.0316 µM, first compound 10 µM",7.74%
same,"viability, T/C",[17],30.8%
same,"viability, T/C",[18],15.1%
same,"viability, T/C",[29],11%
same,"viability, T/C",[30],10.3%
same,"viability, T/C","second compound 0.1 µM, first compound 3.16 µM",9.12%
same,"viability, T/C","second compound 0.1 µM, first compound 10 µM",8.09%
same,"viability, T/C",[21],28.3%
same,"viability, T/C",[22],14.4%
same,"viability, T/C",[31],11.2%
same,"viability, T/C",[32],10.5%
same,"viability, T/C","second compound 0.316 µM, first compound 3.16 µM",6.82%
same,"viability, T/C","second compound 0.316 µM, first compound 10 µM",8.51%
same,"viability, T/C",[25],29.5%
same,"viability, T/C",[26],15.3%
same,"viability, T/C",[33],10.8%
same,"viability, T/C",[34],9.35%
same,"viability, T/C","second compound 1 µM, first compound 3.16 µM",10.7%
same,"viability, T/C","second compound 1 µM, first compound 10 µM",5.7%
Nc1ccn(C2OC(CO)C(O)C2(F)F)c(=O)n1 (stereo unspecified),"viability, T/C",compound 0.00316 µM,101% [middle of 4 runs]
same,"viability, T/C",compound 0.0316 µM,13.5% [middle of 4 runs]
same,"viability, T/C",compound 0.1 µM,9.12% [middle of 4 runs]
same,"viability, T/C",compound 0.316 µM,9.08% [middle of 4 runs]
same,"viability, T/C",compound 1 µM,8.33% [middle of 4 runs]
CCn1c(-c2cc(N3CCN(C)CC3)cnc2C(C)OC)c2c3cc(ccc31)-c1csc(n1)CC(NC(=O)C1CC1C)C(=O)N1CCCC(N1)C(=O)OCC(C)(C)C2 (stereo unspecified),"viability, T/C",compound 0.000949 µM,117% [middle of 8 runs]
same,"viability, T/C",compound 0.003 µM,99.9% [middle of 7 runs]
same,"viability, T/C",compound 0.00949 µM,73.3% [middle of 8 runs]
same,"viability, T/C",compound 0.03 µM,52.7% [middle of 8 runs]
same,"viability, T/C",compound 0.0949 µM,39.1% [middle of 8 runs]
same,"viability, T/C",compound 0.3 µM,39.4% [middle of 8 runs]
same,IC50,"compound alone, run of 07/09/2024",35.9 nM [middle of 8 runs]
